Read-outs that look alike come from different tables or passages of the source. Marks after values point to notes of the source that are not given here.
Legend:
[1] = tested on: human MX-1 mammary tumor; assay: In vivo antitumor activity against i.c.-implanted human MX-1 mammary tumor xenograft; set-up: species or system mouse; conditions: for Median % ILS: I.C.-implanted MX-1, optimal doses (LD10 or less), schedule QD1-5, I.P., based on dying mice only
Description: (§1) The antitumor activity data of the acyl derivatives of DM-PEN vs MX-1 human mammary tumor xenograft implanted s.c. or i.c. with intraperitoneal (i.p.) or oral drug treatment are shown in Table 1 below.
Table 2Comparative Activity of PEN, DM-PEN and DM-ACYL-PEN Against […] Human MX-1 Mammary Tumor at Optimal Doses (LD10 or Less) and Schedule (QD1-5) Administered I.P.

[2] = tested on: P388/0
[3] = Cytotoxicity in vitro; conditions: without metabolism
[4] = tested on: P388/L-PAM; assay: Antitumor activity against IP-implanted P388/L-PAM leukemia in mice
[5] = tested on: P388/BCNU; assay: Antitumor activity against IP-implanted P388/BCNU leukemia in mice
[6] = tested on: P388/CPA; assay: Antitumor activity against IP-implanted P388/CPA leukemia in mice; format: in vivo, murine
[7] = Anti-cancer activity (test not described)
[8] = 14C-penclomedine, tumor-bearing rats; cited from earlier work
[9] = rats; muscle tremors, incoordination, convulsions and reduced activity; cited from earlier work
[10] = tested on: ZR-75-1 mammary; assay: In vivo antitumor activity against s.c.-implanted human tumor xenograft ZR-75-1; conditions: sc ZR-75-1
[11] = tested on: human MX-1 mammary tumor; assay: In vivo antitumor activity against s.c.-implanted human MX-1 mammary tumor xenograft; conditions: sc MX-1
Description: as §1

[12] = tested on: U251 CNS; assay: In vivo antitumor activity against s.c.-implanted human tumor xenograft U251; conditions: sc U251; IP 90 mg/kg/dose, Days 19-23
[13] = P388/0, IP 60.0 MG/KG/DOSE, Q1D X 5 (1)
[14] = P388/0, IP 90.0 MG/KG/DOSE, Q1D X 5 (1)
[15] = P388/0, IP 135.0 MG/KG/DOSE, Q1D X 5 (1)
[16] = P388/L-PAM, IP 60.0 MG/KG/DOSE, Q1D X 5 (1)
[17] = P388/L-PAM, IP 90.0 MG/KG/DOSE, Q1D X 5 (1)
[18] = P388/L-PAM, IP 135.0 MG/KG/DOSE, Q1D X 5 (1)
[19] = IP 60.0 MG/KG/DOSE, Q1D X 5 (1)
[20] = IP 90.0 MG/KG/DOSE, Q1D X 5 (1)
[21] = IP 135.0 MG/KG/DOSE, Q1D X 5 (1)
[22] = highest nontoxic doses evaluated, difference to DM-PEN
[23] = highest nontoxic doses evaluated, difference to PEN
[24] = P388/0, IP 20.0 MG/KG/DOSE, Q1D X 1 (1)
[25] = IP 30.0 MG/KG/DOSE, Q1D X 1 (1)

COc1nc(C(Cl)(Cl)Cl)c(Cl)c(OC(=O)c2ccccc2)c1Cl [DM-B-PEN]
Tumor-Free-Surv/Total ([1]; ic MX-1, IP 135 mg/kg/dose, Days 1-5): . 0/5

COc1nc(C(Cl)(Cl)Cl)c(Cl)c(O)c1Cl [DM-PEN, 3,5-dichloro-2-methoxy-4-hydroxy-6-(trichloromethyl)pyridine]
50-DAY SURV./ TOTAL [2, 13]: 0 / 6
MEDIAN DAY OF DEATH [2, 13]: 18.0
50-DAY SURV./ TOTAL [2, 14]: 0 / 6
MEDIAN DAY OF DEATH [2, 14]: 18.0
50-DAY SURV./ TOTAL [2, 15]: 0 / 6
MEDIAN DAY OF DEATH [2, 15]: 8.6
cytotoxic agents in vitro (in words) [3]: inactive
50-DAY SDRV./ TOTAL [4, 16]: 0 / 8
APPROX. NET LOG10 CHANGE IN TUMOR BURDEN AT END OF Rx [4, 16]: +1.5
MEDIAN DAY OF DEATH [4, 16]: 13.6
50-DAY SDRV./ TOTAL [4, 17]: 0 / 6
APPROX. NET LOG10 CHANGE IN TUMOR BURDEN AT END OF Rx [4, 17]: +1.5
50-DAY SDRV./ TOTAL [4, 18]: 0 / 6
APPROX. NET LOG10 CHANGE IN TUMOR BURDEN AT END OF Rx [4, 18]: +1.5
Lethality at the stated dosage (LD level) [4, 18]: 1.033
50-DAY SURV./ TOTAL [5, 19]: 0 / 6
APPROX. NET LOG10 CHANGE IN TUMOR BURDEN AT END OF Rx [5, 19]: +0.6
50-DAY SURV./ TOTAL [5, 20]: 0 / 6
% ILS [5, 20]: +65%
50-DAY SURV./ TOTAL [5, 21]: 0 / 6
Lethality at the stated dosage (LD level) [5, 21]: LD17
50-DAY SURV./ TOTAL [6, 19]: 0 / 6
50-DAY SURV./ TOTAL [6, 20]: 0 / 6
50-DAY SURV./ TOTAL [6, 21]: 0 / 6
Median % ILS [1]: 60%

CCOc1c(Cl)c(OC)nc(C(Cl)(Cl)Cl)c1Cl [3,5-dichloro-4-ethoxy-6-methoxy-2-(trichloromethyl)pyridine]
anti-cancer activity (in words) [7]: show active anti-cancer activity

COc1nc(C(Cl)(Cl)Cl)c(Cl)c(OC)c1Cl [PEN, 3,5-dichloro-2,4-dimethoxy-6-(trichloromethyl)pyridine]
50-DAY SURV./ TOTAL [2, 13]: 0 / 6
MEDIAN DAY OF DEATH [2, 13]: 14.5
50-DAY SURV./ TOTAL [2, 14]: 0 / 6
APPROX. NET LOG10 CHANGE IN TUMOR BURDEN AT END OF Rx [2, 14]: -0.6
50-DAY SURV./ TOTAL [2, 15]: 0 / 6
APPROX. NET LOG10 CHANGE IN TUMOR BURDEN AT END OF Rx [2, 15]: -4.6
cytotoxic agents in vitro (in words) [3]: inactive
radioactive species in the brain [8]: predominant radioactive species in the brain was penclomedine
50-DAY SDRV./ TOTAL [4, 16]: 0 / 6
50-DAY SDRV./ TOTAL [4, 17]: 0 / 6
APPROX. NET LOG10 CHANGE IN TUMOR BURDEN AT END OF Rx [4, 17]: +1.5
50-DAY SDRV./ TOTAL [4, 18]: 0 / 6
APPROX. NET LOG10 CHANGE IN TUMOR BURDEN AT END OF Rx [4, 18]: +1.5
50-DAY SURV./ TOTAL [5, 19]: 0 / 6
50-DAY SURV./ TOTAL [5, 20]: 0 / 6
50-DAY SURV./ TOTAL [5, 21]: 0 / 6
MEDIAN DAY OF DEATH [5, 21]: 11.5
50-DAY SURV./ TOTAL [6, 19]: 0 / 6
MEDIAN DAY OF DEATH [6, 19]: 10.5
50-DAY SURV./ TOTAL [6, 20]: 0 / 6
MEDIAN DAY OF DEATH [6, 20]: 10.5
50-DAY SURV./ TOTAL [6, 21]: 0 / 6
MEDIAN DAY OF DEATH [6, 21]: 10.5
Median % ILS [1]: 88%
neurotoxicity [9]: Dose related neurotoxicity

O=P1(N(CCCl)CCCl)NCCCO1 (stereo not shown) [CPA, cyclophosphamide]
50-DAY SURV./ TOTAL ([2]; P388/0, IP 175.0 MG/KG/DOSE, Q1D X 1 (1)): 1 / 6
50-DAY SURV./ TOTAL ([2]; P388/0, IP 265.0 MG/KG/DOSE, Q1D X 1 (1)): 6 / 6
50-DAY SURV./ TOTAL ([6]; IP 175.0 MG/KG/DOSE, Q1D X 1 (1)): 0 / 6
50-DAY SURV./ TOTAL ([6]; IP 265.0 MG/KG/DOSE, Q1D X 1 (1)): 0 / 6

COc1nc(C(Cl)(Cl)Cl)c(Cl)c(OC(C)=O)c1Cl [DM-A-PEN]
50-DAY SURV./ TOTAL [2, 13]: 0 / 6
50-DAY SURV./ TOTAL [2, 14]: 0 / 6
MEDIAN DAY OF DEATH [2, 14]: 21.5
50-DAY SURV./ TOTAL [2, 15]: 0 / 6
Lethality at the stated dosage (LD level) [2, 15]: LD33
MEDIAN DAY OF DEATH [2, 15]: 28.5
more active than PEN, log cell kill ([2]; P388/0, highest nontoxic doses evaluated, difference to PEN): 0.4 log cell kill
more active than DM-PEN, log cell kill ([2]; P388/O, highest nontoxic doses evaluated, difference to DM-PEN): 1.9 log cell kill
T-C ([10]; IP 60 mg/kg/dose, Days 10-14): 10.6 days
T-C ([10]; IP 90 mg/kg/dose, Days 8-12): 14.1 days
Lethality at the stated dosage (LD level) ([11]; IP 60 mg/kg/dose, Days 15-19): 60 (LD20)
50-DAY SDRV./ TOTAL [4, 16]: 0 / 6
50-DAY SDRV./ TOTAL [4, 17]: 0 / 6
50-DAY SDRV./ TOTAL [4, 18]: 0 / 6
Lethality at the stated dosage (LD level) [4, 18]: LD17
more active than PEN or DM-PEN, log cell kill ([4]; P388/L-PAM, difference to PEN or DM-PEN): 0.2-0.3 log cell kill
50-DAY SURV./ TOTAL [5, 19]: 1 / 6
50-DAY SURV./ TOTAL [5, 20]: 0 / 6
50-DAY SURV./ TOTAL [5, 21]: 0 / 6
% ILS [5, 21]: +133%
Lethality at the stated dosage (LD level) [5, 21]: LD17
more active than DM-PEN, log cell kill [5, 22]: 1.5 log cell kill
more active than PEN, log cell kill [5, 23]: 3.5 log cell kill
T-C [12]: 15.7 days
50-DAY SURV./ TOTAL [6, 19]: 0 / 6
50-DAY SURV./ TOTAL [6, 20]: 0 / 6
% ILS [6, 20]: +66%
MEDIAN DAY OF DEATH [6, 20]: 20.5
50-DAY SURV./ TOTAL [6, 21]: 0 / 6
% ILS [6, 21]: +127%
more active than DM-PEN, log cell kill [6, 22]: 4.6 log cell kill
more active than PEN, log cell kill [6, 23]: 7.4 log cell kill

CCCCCCCC(=O)Oc1c(Cl)c(OC)nc(C(Cl)(Cl)Cl)c1Cl [DM-O-PEN]
Median % ILS [1]: 121^b %

N[C@@H](Cc1ccc(N(CCCl)CCCl)cc1)C(=O)O [L-PAM, melphalan]
50-DAY SURV./ TOTAL ([2]; mouse, in vivo, ip, 15 mg/kg): 6 / 6
50-DAY SURV./ TOTAL ([2]; mouse, in vivo, ip, 20 mg/kg): 6 / 6
APPROX. NET LOG10 CHANGE IN TUMOR BURDEN AT END OF Rx ([2]; mouse, in vivo, ip, 20 mg/kg): ca -6.6
50-DAY SDRV./ TOTAL ([4]; mouse, in vivo, ip, 15 mg/kg): 0 / 6
APPROX. NET LOG10 CHANGE IN TUMOR BURDEN AT END OF Rx ([4]; mouse, in vivo, ip, 15 mg/kg): -1.6
MEDIAN DAY OF DEATH ([4]; mouse, in vivo, ip, 15 mg/kg): 16.0
50-DAY SDRV./ TOTAL ([4]; mouse, in vivo, ip, 20 mg/kg): 0/6
APPROX. NET LOG10 CHANGE IN TUMOR BURDEN AT END OF Rx ([4]; mouse, in vivo, ip, 20 mg/kg): -1.6
MEDIAN DAY OF DEATH ([4]; mouse, in vivo, ip, 20 mg/kg): 16.0

COc1nc(C(Cl)(Cl)Cl)c(Cl)c(OC(=O)CI)c1Cl [DM-IA-PEN]
Lethality at the stated dosage (LD level) ([11]; IP 60 mg/kg/dose, Days 12-16): 60 (LD40)

COc1nc(C(Cl)(Cl)Cl)c(Cl)c(OC(=O)c2ccco2)c1Cl [DM-F-PEN]
Median % ILS [1]: 108^c %

COCC(=O)Oc1c(Cl)c(OC)nc(C(Cl)(Cl)Cl)c1Cl [DM-MA-PEN]
Median % ILS [1]: 126^a %
Median % ILS (dying mice only) ([1]; ic MX-1, IP 90 mg/kg/dose, Days 1-5): +126%

COc1nc(C(Cl)(Cl)Cl)c(Cl)c(OC(=O)c2ccncc2)c1Cl [DM-IN-PEN]
Lethality at the stated dosage (LD level) ([11]; IP 90 mg/kg/dose, Days 12-16): 90 (LD20)

O=NN(CCCl)C(=O)NCCCl [BCNU, carmustine]
50-DAY SURV./ TOTAL [2, 24]: 3 / 6
% ILS [2, 24]: +145%
APPROX. NET LOG10 CHANGE IN TUMOR BURDEN AT END OF Rx [2, 24]: ca-6.8
50-DAY SURV./ TOTAL ([2]; P388/0, IP 30.0 MG/KG/DOSE, Q1D X 1 (1)): 6 / 6
50-DAY SURV./ TOTAL ([5]; IP 20.0 MG/KG/DOSE, Q1D X 1 (1)): 0 / 6
50-DAY SURV./ TOTAL [5, 25]: 0 / 6
MEDIAN DAY OF DEATH [5, 25]: 6.5

COc1nc(C(Cl)(Cl)Cl)c(Cl)c(OC(=O)c2cccs2)c1Cl [DM-TC-PEN]
Median % ILS [1]: 100^d %

CCOc1nc(C(Cl)(Cl)Cl)c(Cl)c(OCC)c1Cl [3,5-dichloro-4,6-diethoxy-2-(trichloromethyl)pyridine]
anti-cancer activity (in words) [7]: show active anti-cancer activity

Reference: patent publication EP1143970B1, “PYRIDINE COMPOUNDS, USE AND PREPARATION THEREOF” (priority 1999, dated 2000)
